From ChEMBL document CHEMBL5614371, “Quinazolines annelated at the N(3)-C(4) bond: Synthesis and biological activity” (Eur J Med Chem, 2024)
Converted amounts (≈) assume the structure as drawn.

Key:
[1] = system: Staphylococcus aureus; assay: microbe, parasite or virus in culture; conditions: ATCC 25923
[2] = system: Streptococcus pyogenes; assay: microbe, parasite or virus in culture; conditions: ATCC 19615
[3] = system: Staphylococcus aureus; assay: microbe, parasite or virus in culture
[4] = system: Bacillus subtilis; assay: microbe, parasite or virus in culture
[5] = system: Streptococcus pyogenes; assay: microbe, parasite or virus in culture
[6] = system: Escherichia coli; assay: microbe, parasite or virus in culture
[7] = system: Klebsiella pneumoniae; assay: microbe, parasite or virus in culture
[8] = system: Aspergillus niger; assay: microbe, parasite or virus in culture
[9] = system: Candida albicans; assay: microbe, parasite or virus in culture
[10] = system: Trichoderma viride; assay: microbe, parasite or virus in culture
[11] = system: HepG2; assay: cells; conditions: Homo sapiens, HepG2, 48 h
[12] = system: HCT-116; assay: cells; conditions: Homo sapiens, HCT-116, 48 h
[13] = system: Mycobacterium tuberculosis; assay: microbe, parasite or virus in culture; conditions: H37Rv
[14] = system: Mycobacterium tuberculosis; assay: microbe, parasite or virus in culture; conditions: H37Rv ATCC 27294, 168 h
[15] = system: A549; assay: cells; conditions: Homo sapiens, A549, 48 h
[16] = system: HepG2; assay: cells; conditions: Homo sapiens, HepG2, 24 h
[17] = system: HCT-116; assay: cells; conditions: Homo sapiens, HCT-116, 24 h
[18] = system: MCF7; assay: cells; conditions: Homo sapiens, MCF7, 24 h
[19] = system: A549; assay: cells; conditions: Homo sapiens, A549, 48 h; remark: listed apart in the source
[20] = system: MCF7; assay: cells; conditions: Homo sapiens, MCF7, 48 h
[21] = system: NCI-H1299; assay: cells; conditions: Homo sapiens, NCI-H1299, 48 h
[22] = system: MDA-MB-231; assay: cells; conditions: Homo sapiens, MDA-MB-231, 48 h
[23] = system: HCT-116; assay: cells; conditions: Homo sapiens, HCT-116, 48 h; remark: listed apart in the source
[24] = system: MCF7; assay: cells; conditions: Homo sapiens, MCF7, 48 h; remark: listed apart in the source
[25] = system: HCT-116; assay: cells; conditions: Homo sapiens
[26] = system: MCF7; assay: cells; conditions: Homo sapiens
[27] = system: MCF7; assay: cells; conditions: Homo sapiens; remark: listed apart in the source
[28] = system: HepG2; assay: cells; conditions: Homo sapiens
[29] = system: HCT-116; assay: cells; conditions: Homo sapiens; remark: listed apart in the source
[30] = system: MCF7; assay: cells; conditions: Homo sapiens, MCF7, 48 h; remark: listed apart in the source
[31] = system: HepG2; assay: cells; conditions: Homo sapiens, HepG2, 48 h; remark: listed apart in the source
[32] = system: DNA
[33] = system: HepG2; assay: cells; conditions: Homo sapiens; remark: listed apart in the source
[34] = system: HCT-116; assay: cells; conditions: Homo sapiens; remark: listed apart in the source
[35] = system: MDA-MB-231; assay: cells; conditions: Homo sapiens, MDA-MB-231, 48 h; remark: listed apart in the source
[36] = system: A549; assay: cells; conditions: Homo sapiens, A549, 48 h; remark: listed apart in the source
[37] = system: NCI-H1299; assay: cells; conditions: Homo sapiens, NCI-H1299, 48 h; remark: listed apart in the source
[38] = system: HepG2; assay: cells; conditions: Homo sapiens, HepG2, 48 h; remark: listed apart in the source
[39] = system: MCF7; assay: cells; conditions: Homo sapiens, MCF7, 48 h; remark: listed apart in the source
[40] = system: HepG2; assay: cells; conditions: Homo sapiens, HepG2, 48 h; remark: listed apart in the source
[41] = system: MCF7; assay: cells; conditions: Homo sapiens, MCF7, 48 h; remark: listed apart in the source
[42] = system: NCI-H1299; assay: cells; conditions: Homo sapiens
[43] = cells; conditions: Homo sapiens, Breast carcinoma cell
[44] = system: A549; assay: cells; conditions: Homo sapiens, A549, 72 h
[45] = system: HCT-116; assay: cells; conditions: Homo sapiens, HCT-116, 72 h
[46] = system: U-87 MG; assay: cells; conditions: Homo sapiens, 72 h

SMILES: Cc1ccc(S(=O)(=O)Oc2ccc(-c3nc4ccccc4c4nc(=S)[nH]n34)cc2)cc1
- MIC [1]: 3.12 µg/mL (≈ 6.97 µM)
- MIC [2]: 6.25 µg/mL (≈ 13.9 µM)

SMILES: Nc1ccccc1-c1cc2ccccc2[nH]1
- MIC [3]: 2.5 µg/mL (≈ 12 µM)
- MIC [4]: 2.5 µg/mL (≈ 12 µM)
- MIC [5]: 2.5 µg/mL (≈ 12 µM)
- MIC [6]: 2.5 µg/mL (≈ 12 µM)
- MIC [7]: 2.5 µg/mL (≈ 12 µM)
- MIC [8]: 2.5 µg/mL (≈ 12 µM)
- MIC [9]: 2.5 µg/mL (≈ 12 µM)
- MIC [10]: 2.5 µg/mL (≈ 12 µM)

SMILES: Oc1ccc(/C=N/Nc2nc3ccccc3c3nncn23)cc1
- IC50 [11]: 4.43 µM
- IC50 [12]: 48.5 µM

SMILES: CCCc1nc2cc(C)ccc2c2nc3ccccc3n12
- IC50 [13]: 12.5 µg/mL (≈ 45.4 µM)
- IC50 [14]: 0.4 µg/mL (≈ 1.45 µM)

SMILES: FC(F)(F)c1nc2ccccc2c2cc3cc(Cl)ccc3n12
- IC50 [15]: 30.7 µM

SMILES: CN(C)c1ccc(/C=N/NC(=O)c2ccc(Nc3nc4ccccc4c4nncn34)cc2)cc1
- IC50 [16]: 7.91 µM
- IC50 [17]: 8.27 µM

SMILES: CCOC(=O)c1ccc2c3cc(Cl)c(Br)cc3ncn2c1=O
- IC50 [18]: 3.44 µg/mL (≈ 9.01 µM)

SMILES: c1ccc2cc(-c3cc4c5ccccc5ncn4n3)ccc2c1
- GI50 [19]: 1.98 µM
- GI50 [20]: 2.03 µM

SMILES: Oc1ccc(-c2nc3ccccc3c3cc(-c4ccccc4)nn23)cc1
- GI50 [21]: 2.97 µM
- GI50 [22]: 1.95 µM

SMILES: O=c1nc(-c2ccc(Nc3nc4ccccc4c4nncn34)cc2)cc(-c2ccccc2)[nH]1
- IC50 [23]: 11.8 µM

SMILES: Clc1ccc2c(c1)cc1c3ccccc3nc(-c3ccccc3)n21
- IC50 [15]: 30.7 µM

SMILES: COc1ccc(-c2cc(-c3ccc(Nc4nc5ccccc5c5nncn45)cc3)nc(=O)[nH]2)cc1
- IC50 [23]: 11.8 µM

SMILES: Cc1ccc(-c2nc3ccccc3c3cc4ccccc4n23)cc1
- IC50 [15]: 30.7 µM

SMILES: O=[N+]([O-])c1ccc(-c2nc3ccccc3c3cc4ccccc4n23)cc1
- IC50 [15]: 30.7 µM

SMILES: c1ccc(-c2nc3ncccc3c3cc4ccccc4n23)cc1
- IC50 [15]: 30.7 µM

SMILES: N#Cc1ccc2c3cc(Cl)c(Br)cc3ncn2c1=O
- IC50 [24]: 4.1 µg/mL (≈ 12.3 µM)

SMILES: c1ccc(-c2nc3ccccc3c3cccn23)cc1
- IC50 [15]: 30.7 µM

SMILES: CN(C)c1nc2ccccc2c2nncn12
- IC50 [25]: 22.5 µM

SMILES: O=C(N/N=C/c1c(Cl)cccc1Cl)c1ccc(Nc2nc3ccccc3c3nncn23)cc1
- IC50 [16]: 5.42 µM
- IC50 [17]: 7.41 µM

SMILES: CCOC(=O)c1nn2c(NC(C)(C)CC(C)(C)C)nc3ccccc3c2c1C(=O)OCC
- GI50 [19]: 1.1 µM
- GI50 [21]: 1.29 µM

SMILES: FC(F)(F)c1ccc2c(c1)cc1c3ccccc3nc(-c3ccccc3)n21
- IC50 [15]: 30.7 µM

SMILES: O=C(/C=C\c1nc2ccccc2c2nc3ccccc3n12)c1ccc(Cl)c(Cl)c1
- IC50 [26]: 61 µg/mL (≈ 146 µM)
- IC50 [27]: 61 µg/mL (≈ 146 µM)

SMILES: Cc1ccc(-c2nc3ccccc3c3cc4cc(Cl)ccc4n23)cc1
- IC50 [15]: 30.7 µM

SMILES: O=C(N/N=C/c1ccccc1O)c1ccc(Nc2nc3ccccc3c3nncn23)cc1
- IC50 [16]: 7.42 µM
- IC50 [17]: 7.1 µM

SMILES: Cc1c(O)n2cnc3cc(Br)c(Cl)cc3c2nc1=O
- IC50 [24]: 3.5 µg/mL (≈ 10.3 µM)

SMILES: Clc1cccc(Cl)c1/C=N/Nc1nc2ccccc2c2nncn12
- IC50 [28]: 4.43 µM
- IC50 [29]: 5.22 µM

SMILES: N#CC1=CC=C2c3cc(Cl)c(Br)cc3N=CN2C1N (configuration not stated)
- IC50 [24]: 3.45 µg/mL (≈ 10.3 µM)

SMILES: Cc1ccc(-c2cc(-c3ccc(Nc4nc5ccccc5c5nncn45)cc3)nc(=O)[nH]2)cc1
- IC50 [23]: 11.8 µM

SMILES: COc1ccc(-c2nc3ccccc3c3cc4ccccc4n23)cc1
- IC50 [15]: 30.7 µM

SMILES: Clc1ccc2nc(-c3ccccc3)n3c4ccccc4cc3c2c1
- IC50 [15]: 30.7 µM

SMILES: Clc1cc2c(cc1Br)ncn1cnnc21
- IC50 [30]: 3.39 µg/mL (≈ 12 µM)

SMILES: COc1ccc(C2CC(c3ccc(Nc4nc5ccccc5c5nncn45)cc3)=NN2)cc1 (configuration not stated)
- IC50 [31]: 16.1 µM

SMILES: Clc1ccc(-c2nc3ccccc3c3cc4cc(Cl)ccc4n23)cc1
- IC50 [15]: 30.7 µM

SMILES: O=C(NNc1nc2ccccc2c2nncn12)NC1CCCCC1
- IC50 [32]: 42.9 µM
- IC50 [33]: 7.98 µM
- IC50 [34]: 5.57 µM

SMILES: c1ccc(C2CC(c3ccc(Nc4nc5ccccc5c5nncn45)cc3)=NN2)cc1 (configuration not stated)
- IC50 [31]: 16.1 µM

SMILES: O=C(N/N=C/c1ccccc1Cl)c1ccc(Nc2nc3ccccc3c3nncn23)cc1
- IC50 [16]: 4.88 µM
- IC50 [17]: 5.21 µM

SMILES: O=c1nc2c3cc(Cl)c(Br)cc3ncn2c(O)c1-c1ccccc1
- IC50 [24]: 3.44 µg/mL (≈ 8.54 µM)

SMILES: COc1ccc(C(=O)c2c(N)nn3c(NC(C)(C)CC(C)(C)C)nc4ccccc4c23)cc1
- IC50 [35]: 2.45 µM
- IC50 [36]: 1.74 µM
- IC50 [37]: 2.04 µM

SMILES: Clc1ccc(-c2nc3ccccc3c3cc4ccccc4n23)cc1
- IC50 [15]: 30.7 µM

SMILES: c1ccc(Nc2ccccc2-c2nc3ccccc3c3nc(-c4ccccc4)nn23)cc1
- IC50 [38]: 33.3 µg/mL (≈ 80.5 µM)
- IC50 [39]: 87 µg/mL (≈ 210 µM)
- IC90 [40]: 59.9 µg/mL (≈ 145 µM)
- IC90 [41]: 137 µg/mL (≈ 332 µM)

SMILES: Cc1ccc2c(c1)cc1c3ccccc3nc(-c3ccccc3)n21
- IC50 [15]: 30.7 µM

SMILES: CC(C)(C)CC(C)(C)Nc1nc2ccccc2c2c(C(=O)c3ccc(F)cc3)c(N)nn12
- IC50 [35]: 1.93 µM
- IC50 [36]: 1.06 µM
- IC50 [37]: 1.32 µM
- IC50 [42]: < 2.5 µM
- IC50 [43]: < 2.5 µM

SMILES: S=C(NNc1nc2ccccc2c2nncn12)NC1CCCCC1
- IC50 [32]: 48.1 µM

SMILES: COC(=O)c1nn2c(NC(C)(C)C)nc3cc(Cl)ccc3c2c1C(=O)OC
- IC50 [44]: 1.1 µM
- IC50 [45]: 2.3 µM
- IC50 [46]: 2.6 µM

SMILES: O=C(N/N=C/c1ccc(Cl)cc1)c1ccc(Nc2nc3ccccc3c3nncn23)cc1
- IC50 [16]: 8.64 µM
- IC50 [17]: 11 µM

SMILES: Cc1ccc2nc(-c3ccccc3)n3c4ccccc4cc3c2c1
- IC50 [15]: 30.7 µM

SMILES: Cc1ccc(C2CC(c3ccc(Nc4nc5ccccc5c5nncn45)cc3)=NN2)cc1 (configuration not stated)
- IC50 [31]: 16.1 µM

SMILES: c1ccc(-c2nc3ccccc3c3cc4ccccc4n23)cc1
- IC50 [15]: 30.7 µM

SMILES: COc1ccc(-c2nc3ccccc3c3cc4cc(Cl)ccc4n23)cc1
- IC50 [15]: 30.7 µM

SMILES: Cc1nc2ccccc2c2cc3ccccc3n12
- IC50 [15]: 30.7 µM

SMILES: CC(C)(C)CC(C)(C)Nc1nc2ccccc2c2c(C#N)c(N)nn12
- IC50 [35]: 1.96 µM
- IC50 [37]: 2.02 µM
- IC50 [42]: < 2.5 µM
- IC50 [43]: < 2.5 µM

SMILES: CCCc1nc2ccccc2c2nc3ccccc3n12
- IC50 [13]: 0.78 µg/mL (≈ 2.98 µM)
- IC50 [14]: 0.78 µg/mL (≈ 2.98 µM)

SMILES: COc1cccc2c1C(=O)c1c(O)c3c(c(O)c1C2=O)C[C@@](O)(C(=O)CO)C[C@@H]3O[C@H]1C[C@H](N)[C@H](O)[C@H](C)O1 [DOXORUBICIN]
- IC50 [32]: 31.3 µM
- IC50 [29]: 9.63 µM
- IC50 [31]: 7.94 µM
